Laboratory results published in the NIST ThermoML archive (doi:10.1016/j.fluid.2012.03.025).
Numbers after ± are expanded uncertainties.

Columns and labels:
[1] = refractive index (Na D-line) (dimensionless); xn = mol fraction of the nth substance listed; conditions: 298.15 K, 101 kPa, Liquid, Standard Abbe refractometry
[2] = xn = mol fraction of the nth substance listed; conditions: 298.15 K, 101 kPa, Liquid, Vibrating tube method
[3] = Crystal

CCCCCCCCCCO [decan-1-ol] + CCCCCCC(C)O
x2 = 0
Conditions | mass density [kg/m3] | refractive index
[1] | – | 1.4354 ± 0.0004
[2] | 826.59 ± 0.1 | –

CCCCCCCCCCCCN(CCCCCCCCCCCC)CCCCCCCCCCCC [tridodecylamine]
Conditions | Normal melting temperature [°C]
[3] | 16.1 ± 0.4

CCCCCCCCCCCCN(CCCCCCCCCCCC)CCCCCCCCCCCC [tridodecylamine] + CCCCCCCCCCO
Conditions | mass density, [2] [kg/m3] | refractive index, [1]
x1 = 0.0522 | 825.92 ± 0.1 | 1.4385 ± 0.0004
x1 = 0.104 | 825.24 ± 0.1 | 1.4409 ± 0.0004
x1 = 0.2071 | 824.17 ± 0.1 | 1.4448 ± 0.0004
x1 = 0.3096 | 823.37 ± 0.1 | 1.447 ± 0.0004
x1 = 0.4117 | 822.57 ± 0.1 | 1.4493 ± 0.0004
x1 = 0.5112 | 821.93 ± 0.1 | 1.4506 ± 0.0004
x1 = 0.6117 | 821.35 ± 0.1 | 1.4519 ± 0.0004
x1 = 0.7097 | 820.82 ± 0.1 | 1.4528 ± 0.0004
x1 = 0.8078 | 820.35 ± 0.1 | 1.4535 ± 0.0004
x1 = 0.9041 | 819.86 ± 0.1 | 1.4541 ± 0.0004
x1 = 0.9534 | 819.53 ± 0.1 | 1.4544 ± 0.0004
x1 = 1 | 819.23 ± 0.11 | 1.4546 ± 0.0004

CCCCCCCCO [octan-1-ol] + CCCCCCCCCCCCN(CCCCCCCCCCCC)CCCCCCCCCCCC
x2 = 0
Conditions | mass density [kg/m3] | refractive index
[1] | – | 1.4275 ± 0.0004
[2] | 821.76 ± 0.1 | –

CCCCCCCCO [octan-1-ol] + CCCCCCC(C)O
x1 = 1
Conditions | mass density [kg/m3] | refractive index
[1] | – | 1.4275 ± 0.0004
[2] | 821.76 ± 0.1 | –

CCCCCCC(C)O (stereo unspecified) [2-octanol] + CCCCCCCCO
Conditions | mass density, [2] [kg/m3] | refractive index, [1]
x2 = 0 | 816.49 ± 0.11 | 1.4243 ± 0.0004
x2 = 0.0403 | 816.8 ± 0.11 | 1.4246 ± 0.0004
x2 = 0.0812 | 817.11 ± 0.11 | 1.4247 ± 0.0004
x2 = 0.1657 | 817.65 ± 0.11 | 1.425 ± 0.0004
x2 = 0.2539 | 818.13 ± 0.11 | 1.4253 ± 0.0004
x2 = 0.3458 | 818.63 ± 0.11 | 1.4255 ± 0.0004
x2 = 0.4421 | 819.16 ± 0.11 | 1.4259 ± 0.0004
x2 = 0.5431 | 819.71 ± 0.1 | 1.4262 ± 0.0004
x2 = 0.649 | 820.28 ± 0.1 | 1.4265 ± 0.0004
x2 = 0.7603 | 820.85 ± 0.1 | 1.4268 ± 0.0004
x2 = 0.8771 | 821.36 ± 0.1 | 1.4272 ± 0.0004
x2 = 0.9375 | 821.61 ± 0.1 | 1.4273 ± 0.0004

CCCCCCCCCCO [decan-1-ol] + CCCCCCCCCCCCN(CCCCCCCCCCCC)CCCCCCCCCCCC
x2 = 0
Conditions | mass density [kg/m3] | refractive index
[1] | – | 1.4354 ± 0.0004
[2] | 826.59 ± 0.1 | –

CCCCCCCCCCCCN(CCCCCCCCCCCC)CCCCCCCCCCCC [tridodecylamine] + CCCCCCC(C)O
Conditions | mass density, [2] [kg/m3] | refractive index, [1]
x1 = 0.0526 | 816.69 ± 0.11 | 1.4296 ± 0.0004
x1 = 0.1042 | 816.97 ± 0.11 | 1.4336 ± 0.0004
x1 = 0.2072 | 817.55 ± 0.11 | 1.4396 ± 0.0004
x1 = 0.31 | 818.03 ± 0.11 | 1.4436 ± 0.0004
x1 = 0.4111 | 818.41 ± 0.11 | 1.4465 ± 0.0004
x1 = 0.5114 | 818.68 ± 0.11 | 1.4486 ± 0.0004
x1 = 0.6109 | 818.88 ± 0.11 | 1.4503 ± 0.0004
x1 = 0.7083 | 819.04 ± 0.11 | 1.4516 ± 0.0004
x1 = 0.805 | 819.15 ± 0.11 | 1.4528 ± 0.0004
x1 = 0.9037 | 819.22 ± 0.11 | 1.4537 ± 0.0004
x1 = 0.9524 | 819.24 ± 0.11 | 1.4541 ± 0.0004
x1 = 1 | 819.23 ± 0.11 | 1.4546 ± 0.0004

CCCCCCC(C)O (stereo unspecified) [2-octanol] + CCCCCCCCCCO
Conditions | mass density, [2] [kg/m3] | refractive index, [1]
x1 = 0.0505 | 826.1 ± 0.1 | 1.4349 ± 0.0004
x1 = 0.1001 | 825.65 ± 0.1 | 1.4344 ± 0.0004
x1 = 0.1998 | 824.82 ± 0.1 | 1.4334 ± 0.0004
x1 = 0.2999 | 824.02 ± 0.1 | 1.4325 ± 0.0004
x1 = 0.4006 | 823.14 ± 0.1 | 1.4315 ± 0.0004
x1 = 0.5001 | 822.18 ± 0.1 | 1.4304 ± 0.0004
x1 = 0.6 | 821.17 ± 0.1 | 1.4293 ± 0.0004
x1 = 0.6999 | 820.13 ± 0.1 | 1.4281 ± 0.0004
x1 = 0.7995 | 819.04 ± 0.11 | 1.427 ± 0.0004
x1 = 0.8998 | 817.86 ± 0.11 | 1.4257 ± 0.0004
x1 = 0.95 | 817.21 ± 0.11 | 1.4251 ± 0.0004
x1 = 1 | 816.49 ± 0.11 | 1.4244 ± 0.0004

CCCCCCCCCCCCN(CCCCCCCCCCCC)CCCCCCCCCCCC [tridodecylamine] + CCCCCCCCO
Conditions | mass density, [2] [kg/m3] | refractive index, [1]
x1 = 0.0652 | 821.91 ± 0.1 | 1.4337 ± 0.0004
x1 = 0.1282 | 821.75 ± 0.1 | 1.438 ± 0.0004
x1 = 0.2477 | 821.37 ± 0.1 | 1.4434 ± 0.0004
x1 = 0.3616 | 820.95 ± 0.1 | 1.4468 ± 0.0004
x1 = 0.469 | 820.67 ± 0.1 | 1.4491 ± 0.0004
x1 = 0.5695 | 820.41 ± 0.1 | 1.4506 ± 0.0004
x1 = 0.6684 | 820.15 ± 0.1 | 1.4519 ± 0.0004
x1 = 0.7531 | 819.94 ± 0.1 | 1.4528 ± 0.0004
x1 = 0.8438 | 819.65 ± 0.1 | 1.4535 ± 0.0004
x1 = 0.9238 | 819.4 ± 0.1 | 1.4541 ± 0.0004
x1 = 0.9643 | 819.29 ± 0.1 | 1.4544 ± 0.0004
x1 = 1 | 819.23 ± 0.11 | 1.4546 ± 0.0004

CCCCCCC(C)O (stereo unspecified) [2-octanol] + CCCCCCCCCCCCN(CCCCCCCCCCCC)CCCCCCCCCCCC
x2 = 0
Conditions | mass density [kg/m3] | refractive index
[1] | – | 1.4244 ± 0.0004
[2] | 816.49 ± 0.11 | –
